The values below come from patent US20200390909A1, “DRUG FRAGMENT IMAGING AGENT CONJUGATES” (The Board of Trustees of the Leland Stanford Junior …, priority 2018, published 2020).

The conditions of assay [1]: systemically administered, clinical optical contrast agent; cited from earlier work.
For another assay, the system named is breast tumor. The assay is described as follows: NIRF imaging of breast tumor after oral gavage of systemic functional dye. The assay is classed as in vivo, mouse. The protocol: FIG. 6A-6D. Highlighting a breast tumor following oral administration of an exemplary systemic functional dye (Compound (8), SU780). FIG. 6A NIRF imaging of the intact mouse 24 h post oral gavage of SU780.
A wild type with an unidentified spontaneous flank tumor received an oral gavage of Compound (8) (SU780) (0.4 mg/kg). The following day, the animal was sacrificed, and the tumor was subjected to NIRF imaging.
Shown in FIG. 6 is the highlighting of a breast tumor following oral administration of the systemic functional dye Compound (8) (SU780).

In the case of `CC1(C)C(/C=C/C2=C(Oc3ccc(C[C@H](NC(=O)c4ccc(NCc5cnc6nc(N)[nH]c(=O)c6n5)cc4)C(=O)[O-])cc3)C(=C/C=C3\N(CCCCS(=O)(=O)[O-])c4ccc(S(=O)(=O)[O-])cc4C3(C)C)/CCC2)=[N+](CCCCS(=O)(=O)[O-])c2ccc(S(=O)(=O)[O-])cc21.[H+].[H+].[H+].[H+]` [OTL38], the TBR in assay [1] is listed as 4.4.
As for `CCCN1/C(=C/C=C2\CCCC(/C=C/C3=[N+](CCC)c4ccccc4C3(C)C)=C2Nc2ccc(NC(=O)CN3CCOCC3)cc2)C(C)(C)c2ccccc21` [Compound (8)], the “localisation in H&E processed tumor section” value with breast tumor (after tissue processing for H&E) is “highlights mainly epithelial cancer cells”. The “fluorescence of residual tumor tissue in resection bed (image-guided resection)” value with breast tumor (after tumor resection, oral gavage) was “residual tumor tissue was fluorescing in the resection bed”. Further, in the assay with breast tumor (mouse with spontaneous flank (breast) tumor, oral gavage 0.4 mg/kg, following day, resected tumor), the “highlighting of tumor by NIRF imaging after oral administration” value was “highlights the tumor”. In addition, the “NIRF signal at tumor margin / tumor infiltration into normal tissue (tissue section)” value is on record as “perfect correlation with tumor infiltration into normal tissues” in the assay on breast tumor (oral gavage 0.4 mg/kg, 0.4 mg/kg) and “highlights the finger-like infiltration of the breast cancer cells into normal mammary fat pad” in the assay on breast tumor (oral gavage 0.4 mg/kg, listed as SU780, 0.4 mg/kg).
